Measured values reported in ChEMBL document CHEMBL1144482, “Design, synthesis, biochemical evaluation and antimycobacterial action of phosphonate inhibitors of antigen 85C, a crucial enzyme involved in biosynthesis of the mycobacterial cell wall” (Eur J Med Chem, 2007).
≈ marks a conversion by molar mass, not a printed value. Calls of active or inactive are those of the source. The calls are words filed in the database; no cut-off is given here.

How the values were obtained:
[1] = biological target: Diacylglycerol acyltransferase/mycolyltransferase Ag85C (Mycobacterium tuberculosis, UniProt P9WQN9); experiment: Inhibition of Mycobacterium tuberculosis recombinant antigen 85C mycolyltransferase
Sequence of Diacylglycerol acyltransferase/mycolyltransferase Ag85C (P9WQN9 whole entry): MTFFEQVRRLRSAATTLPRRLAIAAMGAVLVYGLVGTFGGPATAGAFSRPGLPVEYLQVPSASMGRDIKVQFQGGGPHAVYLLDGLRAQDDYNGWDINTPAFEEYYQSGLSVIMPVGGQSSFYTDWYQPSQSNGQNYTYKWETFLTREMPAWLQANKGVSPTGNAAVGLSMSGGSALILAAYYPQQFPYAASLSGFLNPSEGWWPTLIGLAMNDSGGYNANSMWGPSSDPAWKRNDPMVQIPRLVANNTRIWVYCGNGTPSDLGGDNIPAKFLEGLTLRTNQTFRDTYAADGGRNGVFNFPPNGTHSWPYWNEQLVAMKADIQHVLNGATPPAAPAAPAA

Mycobacterium avium = experiment: Growth inhibition of Mycobacterium avium 2447; type: functional

Compound	IC50 [1]	MIC (Mycobacterium avium)	Activity (Mycobacterium avium)
CCCCP(=O)(OCC)OCc1ccccc1Oc1ccccc1 (stereo not drawn)	2 µM	249 µg/mL (≈ 714 µM)	–
CCCCP(=O)(OCC)OCCN1C(=O)c2ccccc2C1=O (stereo not drawn)	–	406 µg/mL (≈ 1200 µM)	–
CC[C@H]1OC(=O)[C@H](C)[C@@H](O[C@H]2C[C@@](C)(OC)[C@@H](O)[C@H](C)O2)[C@H](C)[C@@H](O[C@@H]2O[C@H](C)C[C@H](N(C)C)[C@H]2O)[C@](C)(OC)C[C@@H](C)C(=O)[C@H](C)[C@@H](O)[C@]1(C)O [CLARITHROMYCIN]	–	0.2 µg/mL (≈ 0.267 µM)	–
CCCCCCCCCP(=O)(OCC)OCc1ccccc1Oc1ccccc1 (stereo not drawn)	14.8 µM	188 µg/mL (≈ 450 µM)	–
CCCCCCCCCP(=O)(OCC)OCCN1C(=O)c2ccccc2C1=O (stereo not drawn)	–	–	inactive
CCCCCCCP(=O)(OCC)OCN1C(=O)c2ccccc2C1=O (stereo not drawn)	–	–	inactive
CCOP(=O)(O)CCCCN1C(=O)c2ccccc2C1=O	110 µM	–	–
CCCCCCCCCP(=O)(OCC)OCN1C(=O)c2ccccc2C1=O (stereo not drawn)	–	84.5 µg/mL (≈ 214 µM)	–
CCCCCCP(=O)(OCC)OCc1cc(OC)c(OC)c(OC)c1 (stereo not drawn)	102 µM	–	–
CCCCCCCP(=O)(OCC)OCc1ccccc1Oc1ccccc1 (stereo not drawn)	21 µM	319 µg/mL (≈ 817 µM)	–
CCCCCCCCCCCCCCP(=O)(OCC)OCc1ccccc1Oc1ccccc1 (stereo not drawn)	862 µM	–	–
CCOP(=O)(O)CCc1ccccc1	225 µM	–	–
CCCCCCP(=O)(OCC)OCc1ccccc1Oc1ccccc1 (stereo not drawn)	42.6 µM	260 µg/mL (≈ 690 µM)	–
CCCCP(=O)(OCC)OCN1C(=O)c2ccccc2C1=O (stereo not drawn)	–	–	inactive
